According to ChEMBL document CHEMBL1157700, “Synthesis of 3-[(N-carboalkoxy)ethylamino]-indazole-dione derivatives and their biological activities on human liver carbonyl reductase” (Bioorg Med Chem, 2010):

Test system: A549
Assay: Potentiation of daunorubicin-induced cytotoxicity against human A549 cells
Format: functional

## CNc1ncnc2c1c(-c1cccc(O)c1)cn2C(C)C
  Activity: 25%
